Legend:
[1] = target: T1, β1,3-N-acetylglucosaminyl transferase (G4) (Homo sapiens, UniProt Q9Y2A9, R328H); assay: Substrate specificity of G4 with pyridylaminated oligosaccharides; assay type: biochemical; settings: for Relative activity (%): pyridylaminated substrate 50 μmol/l, 37° C., 14.5 hours, activity on LNnT defined as 100%
T1 construct: made in house; host or cells: Sf21 insect cells infected with recombinant baculovirus from pVL1393-F2G4
T1 sequence (Q9Y2A9 38-372 R328H): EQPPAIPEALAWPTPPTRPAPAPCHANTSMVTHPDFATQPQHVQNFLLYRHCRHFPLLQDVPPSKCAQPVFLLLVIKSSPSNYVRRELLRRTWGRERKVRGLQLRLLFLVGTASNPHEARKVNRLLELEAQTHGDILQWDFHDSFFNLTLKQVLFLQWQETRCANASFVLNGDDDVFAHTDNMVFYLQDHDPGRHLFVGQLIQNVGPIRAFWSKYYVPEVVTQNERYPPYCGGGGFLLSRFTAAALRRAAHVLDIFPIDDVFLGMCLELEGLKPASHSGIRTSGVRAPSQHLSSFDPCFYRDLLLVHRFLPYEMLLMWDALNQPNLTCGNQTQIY
Protocol: Examination on the substrate specificity of a β1,3-N-acetylglucosaminyl transferase (G4) was carried out by using the FLAG peptide-fused G4 polypeptide produced as a secreted form in Example 10.
The method shown in Example 8 was used as the activity measuring method. Specifically, after the reaction at 37° C. for 14.5 hours in 30 μl of an assay solution [200 mmol/l of MOPS (pH 7.5), 20 mmol/l of UDP-GlcNAc (SIGMA), 20 mmol/l of MnCl2, 50 μmol/l of pyridylaminated sugar chain substrate and 15 μl of the above eluate], products were detected by HPLC. As substrates, LNnT, lacto-N-tetraose (Galβ1-3GlcNAcβ1-3Galβ1-4Glc, hereinafter referred to as “LNT”), lacto-N-fucopentaose II (Galβ1-3(Fucα1-4)GlcNAcβ1-3Galβ1-4Glc, hereinafter referred to as “LNFP-II”), lacto-N-fucopentaose III (Galβ1-4(Fucα1-3)GlcNAcβ1-3Galβ1-4Glc, hereinafter referred to as “LNFP-III”), lacto-N-fucopentaose V (Galβ1-3GlcNAcβ1-3Galβ1-4(Fucα1-3)Glc, hereinafter referred to as “LNFP-V”) and lacto-N-difucohexaose II (Galβ1-3(Fucα1-4)GlcNAcβ1-3Galβ1-4(Fucα1-3)Glc, hereinafter referred to as “LNDFH-II”) (all manufactured by Oxford Glycosystems) were used after fluorescently labeling them with aminopyridine. Fluorescence labeling of these substrates were carried out in accordance with the usual method [Agric. Biol. Chem., 54, 2169 (1990)].
(§1) For each substrate, the reaction was carried using the assay solution with or without UDP-GlcNAc (sugar donor), and then HPLC was carried out and peaks appeared only in the assay solution containing UDP-GlcNAc were defined as products.
The assay solution after completion of the reaction was treated at 100° C. for 5 minutes and then centrifuged at 10,000×g for 5 minutes, and a portion (5 μl) of the thus obtained supernatant was applied to HPLC.
The HPLC was carried out by using TSK-gel ODS-80Ts column (4.6×300 mm; Tosoh); 0.02 mol/l ammonium acetate buffer (pH 4.0) was used as the eluate at an elution temperature of 50° C. and at a flow rate of 0.5 ml/min.
Products were detected by using a fluorescence spectrum photometer FP-920 (JASCO Corporation) (excitation wavelength 320 nm, radiation wavelength 400 nm).

[2] = target: T2, β1,3-N-acetylglucosaminyl transferase (G3) (Homo sapiens, UniProt Q9NY97); assay: Substrate specificity of G3 with unlabeled oligosaccharides; assay type: biochemical; settings: 2 hours; for Relative activity (%) G3: unlabeled substrate, 37° C., activity for LNnT defined as 100%
T2 construct: made in house; host or cells: Sf21 insect cells infected with recombinant baculovirus from pVL1393-F2G3
T2 sequence (Q9NY97 31-397): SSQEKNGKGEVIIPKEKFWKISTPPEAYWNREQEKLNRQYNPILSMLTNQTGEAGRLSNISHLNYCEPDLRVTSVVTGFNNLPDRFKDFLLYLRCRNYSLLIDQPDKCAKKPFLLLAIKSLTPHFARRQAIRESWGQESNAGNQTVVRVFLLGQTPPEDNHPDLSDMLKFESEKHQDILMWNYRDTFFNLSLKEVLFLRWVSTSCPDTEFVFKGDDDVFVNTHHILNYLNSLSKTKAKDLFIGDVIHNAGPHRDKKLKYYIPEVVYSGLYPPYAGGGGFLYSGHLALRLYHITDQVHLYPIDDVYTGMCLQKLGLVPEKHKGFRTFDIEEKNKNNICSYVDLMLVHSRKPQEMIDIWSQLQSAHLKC
Protocol: The reaction using the glycosyltransferase was carried out as follows. The reaction was carried out at 37° C. for 16 hours in 40 μl of an assay solution [50 mmol/l MOPS (pH 7.5), 5 mmol/l UDP-GlcNAc (SIGMA), 5 mmol/l MnCl2, […] and 10 μl of the above eluate]. Next, the reaction solution was treated at 100° C. for 5 minutes and then centrifuged at 10,000×g for 20 minutes to obtain the supernatant, and a portion thereof was analyzed using HPAE/PAD (High Performance Anion Pulsed Amperometoric Detection; manufactured by DIONEX). The specific method was carried out in the usual way [Anal. Biochem., 189, 151 (1990), J. Biol. Chem., 273, 433 (1998)].
As substrates, the following unlabeled oligosaccharides were used: lactose (Galβ1-4Glc), N-acetyllactosamine (Galβ1-4GlcNAc, hereinafter referred to as “LacNAc” in some cases), LNnT, LNT and lacto-N-neohexaose (Galβ1-4GlcNACβ1-3Galβ1-4GlcNAcβ1-3Galβ1-4Glc, hereinafter referred to as “LNnH”).
as §1
In identifying the product, coincidence of its elution time with that of a standard sugar chain was used as the index. As the standard sugar chains, GlcNAcβ1-3Galβ1-4Glc, GlcNAcβ1-3Galβ1-4GlcNAc and GlcNAcβ1-3Galβ1-4GlcNAcβ1-3Galβ1-4Glc were used.
Substrate specificity of the FLAG peptide-fused G3 polypeptide was examined by the method shown in Example 11(2). The enzyme reaction was carried out at 37° C. for 2 hours.

Structure (SMILES) | conversion ratio of the substrate into the product ([1]; pyridylaminated LNnT as substrate) | Relative activity (%) [1] | conversion ratio of a substrate into the product ([2]; unlabeled LNnT as substrate) | Relative activity (%) G3 [2]
CC(=O)N[C@H]1[C@H](O[C@H]2[C@@H](O)[C@@H](CO)O[C@@H](O[C@H]3[C@H](O)[C@@H](O)C(O)O[C@@H]3CO)[C@@H]2O)O[C@H](CO)[C@@H](O[C@@H]2O[C@H](CO)[C@H](O)[C@H](O)[C@H]2O)[C@@H]1O (mixture of isomers) [LNnT, lacto-N-neotetraose] | 12.9% | 100% | 4.6% | 100%
CC(=O)N[C@H]1[C@H](O[C@H]2[C@@H](O)[C@@H](CO)O[C@@H](O[C@H]3[C@H](O)[C@@H](O)C(O)O[C@@H]3CO)[C@@H]2O)O[C@H](CO)[C@@H](O)[C@@H]1O[C@@H]1O[C@H](CO)[C@H](O)[C@H](O)[C@H]1O (stereo partly drawn) [LNT, lacto-N-tetraose] | – | 84.5% | – | 27%
